Assay results as given in the supplement of paper PMC11061612.

Key:
Assay in all cases: combination Emax (second highest fraction inhibited in the dose matrix, 72 h); higher = more inhibition; extreme values may be limits of the assay
[1] = test system: NCI-H2087 (Lung Adenocarcinoma)
In short: (§1)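 Bliss excess equals the observed combination effect minus the expected value EA + EB − EA·EB, where EA and EB are the effects of each agent alone. Combination Emax is the second-highest inhibition within the matrix. Inhibition was scaled from CellTiter-Glo 2.0 luminescence, with 0 set by vehicle wells and 1 by blank wells, after 72 hours of two-drug dosing of cells plated in 1536-well plates.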

[2] = test system: SK-HEP-1 (Hepatocellular Carcinoma)
In short: as §1

[3] = test system: MHH-ES-1 (Ewing's Sarcoma)
In short: as §1

[4] = test system: CGTH-W-1 (Thyroid Gland Carcinoma)
In short: as §1

[5] = test system: SW620 (Colorectal Carcinoma)
In short: as §1

NB13 (Neuroblastoma) = test system: NB13 (Neuroblastoma)
In short: as §1

HCC70 (Breast Carcinoma) = test system: HCC70 (Breast Carcinoma)
In short: as §1

KP-N-YN (Neuroblastoma) = test system: KP-N-YN (Neuroblastoma)
In short: as §1

Compound | combination Emax [1] | combination Emax [2] | combination Emax [3] | combination Emax [4] | combination Emax [5] | combination Emax (NB13 (Neuroblastoma)) | combination Emax (HCC70 (Breast Carcinoma)) | combination Emax (KP-N-YN (Neuroblastoma))
C=CCn1c(=O)c2cnc(Nc3ccc(N4CCN(C)CC4)cc3)nc2n1-c1cccc(C(C)(C)O)n1 [AZD1775] + CCc1c2c(nc3ccc(O)cc13)-c1cc3c(c(=O)n1C2)COC(=O)[C@]3(O)CC [SN-38] (first compound max 1 µM, partner max 0.3 µM) | 0.941 | 0.622 | 0.985 | 0.703 | 0.949 | 0.853 | 0.537 | –
C=CCn1c(=O)c2cnc(Nc3ccc(N4CCN(C)CC4)cc3)nc2n1-c1cccc(C(C)(C)O)n1 [AZD1775] + Nc1ccn([C@@H]2O[C@H](CO)[C@@H](O)C2(F)F)c(=O)n1 [Gemcitabine] (first compound max 1 µM, partner max 0.3 µM) | 0.6 | 0.514 | 0.983 | 0.761 | 0.9 | – | 0.513 | –
CN(CCO)CC[C@H](CSc1ccccc1)Nc1ccc(S(=O)(=O)NC(=O)c2ccc(N3CCC([C@@H](O)c4ccccc4-c4ccc(Cl)cc4)CC3)cc2)cc1S(=O)(=O)C(F)(F)F [AZD4320] + CS(=O)(=O)CCNCc1ccc(-c2ccc3ncnc(Nc4ccc(OCc5cccc(F)c5)c(Cl)c4)c3c2)o1 [Lapatinib] (first compound max 1 µM, 7x7, partner max 10 µM) | 0.541 | 0.909 | 0.973 | 0.273 | 0.741 | 0.989 | 0.93 | –
Cc1c2c(nn1C)CSCc1cc(n(C)n1)CSc1cc(c3ccccc3c1)OCCCc1c(C(=O)O)n(C)c3c-2c(Cl)ccc13 [AZD5991] + CC(=O)O[C@H]1C(=O)[C@@]2(C)[C@H]([C@H](OC(=O)c3ccccc3)[C@]3(O)C[C@H](OC(=O)[C@H](O)[C@@H](NC(=O)c4ccccc4)c4ccccc4)C(C)=C1C3(C)C)[C@]1(OC(C)=O)CO[C@@H]1C[C@@H]2O [Paclitaxel] (first compound max 1 µM, 7x7, partner max 3 µM) | 0.554 | 0.857 | 0.965 | 0.59 | 0.788 | – | 0.973 | 0.608
Cc1c2c(nn1C)CSCc1cc(n(C)n1)CSc1cc(c3ccccc3c1)OCCCc1c(C(=O)O)n(C)c3c-2c(Cl)ccc13 [AZD5991] + CS(=O)(=O)CCNCc1ccc(-c2ccc3ncnc(Nc4ccc(OCc5cccc(F)c5)c(Cl)c4)c3c2)o1 [Lapatinib] (first compound max 1 µM, 7x7, partner max 10 µM) | 0.275 | 0.632 | 0.58 | 0.221 | 0.207 | 0.527 | 0.995 | 0.374
Cc1c2c(nn1C)CSCc1cc(n(C)n1)CSc1cc(c3ccccc3c1)OCCCc1c(C(=O)O)n(C)c3c-2c(Cl)ccc13 [AZD5991] + Nc1ccn([C@@H]2O[C@H](CO)[C@@H](O)C2(F)F)c(=O)n1 [Gemcitabine] (first compound max 1 µM, 7x7, partner max 0.3 µM) | 0.546 | 0.535 | 0.935 | 0.688 | 0.657 | – | 0.937 | –
C[C@@H]1COCCN1c1cc(C2([S@](C)(=N)=O)CC2)nc(-c2ccnc3[nH]ccc23)n1 [AZD6738] + C1CC(C1)(C(=O)[O-])C(=O)[O-].N.N.[Pt+2] [Carboplatin] (first compound max 10 µM, 7x7, partner max 10 µM) | 0.564 | 0.166 | 0.51 | 0.302 | 0.478 | 0.81 | 0.763 | –
C[C@@H]1COCCN1c1cc(C2([S@](C)(=N)=O)CC2)nc(-c2ccnc3[nH]ccc23)n1 [AZD6738] + Nc1ccn([C@@H]2O[C@H](CO)[C@@H](O)C2(F)F)c(=O)n1 [Gemcitabine] (first compound max 10 µM, 7x7, partner max 0.3 µM) | 0.699 | 0.645 | 0.995 | 0.947 | 0.895 | – | 0.826 | –
C[C@@H](Nc1cc(F)cc(F)c1)c1cc(C(=O)N(C)C)cc2c(=O)cc(N3CCOCC3)oc12 [AZD8186] + C1CN(CCC1(C(=O)N[C@@H](CCO)C2=CC=C(C=C2)Cl)N)C3=NC=NC4=C3C=CN4 [AZD5363] (first compound max 10 µM, 7x7, partner max 10 µM) | 0.195 | 0.159 | 0.358 | 0.316 | 0.24 | – | 0.732 | 0.257
C[C@@H](Nc1cc(F)cc(F)c1)c1cc(C(=O)N(C)C)cc2c(=O)cc(N3CCOCC3)oc12 [AZD8186] + CC(=O)c1c(C)c2cnc(Nc3ccc(N4CCNCC4)cn3)nc2n(C2CCCC2)c1=O [Palbociclib] (first compound max 10 µM, 7x7, partner max 10 µM) | 0.24 | 0.578 | 0.602 | 0.311 | 0.481 | – | 0.575 | 0.433
C[C@@H](Oc1cc(-c2cnn(C3CCNCC3)c2)cnc1N)c1c(Cl)ccc(F)c1Cl [Crizotinib] + CC1=C(C(=CC=C1)Cl)NC(=O)C2=CN=C(S2)NC3=CC(=NC(=N3)C)N4CCN(CC4)CCO [Dasatinib] (first compound max 10 µM, 7x7, partner max 2 µM) | 0.39 | 0.433 | 0.77 | 0.961 | 0.867 | 0.801 | 0.117 | 0.71
C[C@@H](Oc1cc(-c2cnn(C3CCNCC3)c2)cnc1N)c1c(Cl)ccc(F)c1Cl [Crizotinib] + Cn1cnc2c(F)c(Nc3ccc(Br)cc3Cl)c(C(=O)NOCCO)cc21 [Selumetinib] (first compound max 10 µM, 7x7, partner max 10 µM) | 0.587 | 0.387 | 0.889 | 0.213 | 0.861 | 0.804 | 0.448 | 0.607
CS(=O)(=O)CCNCc1ccc(-c2ccc3ncnc(Nc4ccc(OCc5cccc(F)c5)c(Cl)c4)c3c2)o1 [Lapatinib] + Cn1cnc2c(F)c(Nc3ccc(Br)cc3Cl)c(C(=O)NOCCO)cc21 [Selumetinib] (first compound max 10 µM, 7x7, partner max 10 µM) | 0.575 | 0.133 | 0.401 | 0.245 | 0.656 | 0.521 | 0.891 | 0.409
O=C(c1cc(Cc2n[nH]c(=O)c3ccccc23)ccc1F)N1CCN(C(=O)C2CC2)CC1 [Olaparib] + CC1(C)CCC(CN2CCN(c3ccc(C(=O)NS(=O)(=O)c4ccc(NCC5CCOCC5)c([N+](=O)[O-])c4)c(Oc4cnc5[nH]ccc5c4)c3)CC2)=C(c2ccc(Cl)cc2)C1 [Venetoclax] (first compound max 10 µM, 7x7, partner max 1 µM) | 0.176 | 0.73 | 0.86 | 0.053 | 0.182 | – | 0.141 | 0.728
O=C(c1cc(Cc2n[nH]c(=O)c3ccccc23)ccc1F)N1CCN(C(=O)C2CC2)CC1 [Olaparib] + CN(CC[C@H](CSC1=CC=CC=C1)NC2=C(C=C(C=C2)S(=O)(=O)NC(=O)C3=CC=C(C=C3)N4CCC(CC4)[C@H](C5=CC=CC=C5C6=CC=C(C=C6)Cl)O)S(=O)(=O)C(F)(F)F)CCO [AZD4320] (first compound max 10 µM, 7x7, partner max 1 µM) | 0.413 | 0.911 | 0.952 | 0.0708 | 0.329 | – | 0.253 | 0.968
O=C(c1cc(Cc2n[nH]c(=O)c3ccccc23)ccc1F)N1CCN(C(=O)C2CC2)CC1 [Olaparib] + COc1nnc2ccc(N3CCC(c4ccc(OCCN5CCN(C)C(=O)[C@H]5C)cc4)CC3)nn12 [AZD5153] (first compound max 10 µM, 7x7, partner max 1 µM) | 0.39 | 0.752 | 0.905 | 0.218 | 0.447 | – | 0.281 | 0.521
O=C(c1cc(Cc2n[nH]c(=O)c3ccccc23)ccc1F)N1CCN(C(=O)C2CC2)CC1 [Olaparib] + Cc1c2c(nn1C)CSCc1cc(n(C)n1)CSc1cc(c3ccccc3c1)OCCCc1c(C(=O)O)n(C)c3c-2c(Cl)ccc13 [AZD5991] (first compound max 10 µM, 7x7, partner max 1 µM) | 0.13 | 0.478 | 0.879 | 0.0485 | 0.173 | – | 0.879 | 0.335
